Measured values as given in patent publication US6515025B2, “Use of ethynyl alanine amino diol compounds to inhibit enzymatic conversion of angiotensinogen to angiotensin I” (Pharmacia Corporation, priority 1991, dated 2003).

Target: T1, human renin (Homo sapiens, UniProt P00797)
T1 construct: purchased National Institute for Biological Standards, London
T1 sequence (P00797 67-406): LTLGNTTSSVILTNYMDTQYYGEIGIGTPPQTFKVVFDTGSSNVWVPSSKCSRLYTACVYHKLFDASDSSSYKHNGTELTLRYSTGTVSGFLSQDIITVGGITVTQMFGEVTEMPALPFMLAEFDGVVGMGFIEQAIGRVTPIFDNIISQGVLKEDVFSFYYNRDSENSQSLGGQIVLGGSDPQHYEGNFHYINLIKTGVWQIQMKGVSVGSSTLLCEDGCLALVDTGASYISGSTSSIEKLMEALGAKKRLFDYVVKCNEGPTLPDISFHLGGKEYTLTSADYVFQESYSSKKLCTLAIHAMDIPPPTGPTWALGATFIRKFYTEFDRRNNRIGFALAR
Experiment: Human renin inhibition in vitro
Assay type: biochemical
Experimental: Compounds of Formula I were evaluated as inhibitors of human renin in an in vitro assay, as follows: This human renin inhibition test has been previously described in detail [Papaioannou et al., Clinical and Experimental Hypertension, A7(9), 1243-1257 (1985)]. Human renin was obtained from the National Institute for Biological Standards, London. An incubation mixture was prepared containing the following components: in a total volume of 0.25 mL: 100 mM Tris-acetate buffer at pH 7.4, 25×10^−6 Goldblatt units of renin, 0.05 mL of plasma from human volunteers taking oral contraceptives, 6.0 mM Na-EDTA, 2.4 mM phenylmethyl sulfonyl fluoride, 1.5 mM 8-hydroxyquinoline, 0.4 mg/mL bovine serum albumin (BSA), and 0.024 mg/mL neomycin sulfate. This mixture was incubated for two hours at 37° C. in the presence or absence of renin inhibitors. The produced angiotensin I was determined by radioimmunoassay (New England Nuclear kit). Test compounds to be assayed were dissolved in DMSO and diluted with 100 mM Tris-acetate buffer at pH 7.4 containing 0.5% BSA to the appropriate concentration. The final concentration of organic solvent in the reaction mixture was less than 1%. Control incubations at 37° C. were used to correct for effects of organic solvent on renin activity.

IC50: 1 nM
Structure (SMILES): C#CC[C@H](NC(=O)C(CC(=O)N(C)CCN(C)C)Cc1ccccc1)C(=O)NC(CC1CCCCC1)[C@@H](O)C(O)CC(C)C (relative stereo) [Example 1, N1-[1R*-[[[1S,1R*-(cyclohexylmethyl)-2S*,3R*-dihydroxy-5-methylhexyl]amino]carbonyl]-3-butynyl]-N4-[2-(dimethylamino)ethyl]-N4-methyl-2S*-(phenylmethyl)butanediamide]
